Laboratory results: patent US20240344241A1, “PROTEINACEOUS MOLECULES AND USES THEREFOR” (THE UNIVERSITY OF QUEENSLAND, priority 2021, published 2024)
Bridge positions count the residues as written; N and C are the ends. Peptide text beside a SMILES is read from it.

Assays:
[1] = tested on: human whole blood, intrinsic pathway (INTEM); test: Rotational thromboelastometry INTEM in human whole blood; details: 10 μM
Procedure: (§1) The anticoagulant activity of cyclic MCoFx7 was determined in human whole blood using two assays: activated clotting time (ACT) and rotational thromboelastometry (ROTEM). In ACT assays, the clotting time (y-axis) was increased in a dose-dependent manner from the control (124 s), reaching 223 s with 20 μM MCoFx7. […] Anticoagulant activity was verified by thromboelastometry (TEM) that was measured after activation of the intrinsic pathway (INTEM) (refer to FIG. 16). […] By comparison, a single concentration of cyclic [A25P]MCoFx7 (10 μM) produced a clotting time of 500 s, similar to cyclic MCoFx7 at 10 μM (469 s).
(§2) Activated clotting time (ACT) was measured in fresh whole blood using celite tubes with the Hemochron 401 coagulation analyzer (Soma Technology, Bloomfield, CT, USA). Whole blood clot formation was recorded by ROTEM® Thromboelastometry (Haemoview Diagnostics, Brisbane, Australia) using INTEM (contact factor-initiated coagulation) and HEPTEM (contact factor-initiated coagulation with heparinase) activating reagents according to the manufacturer's instructions.

[2] = biological target: T1, Human β-FXIIa (Homo sapiens, UniProt P00748); test: FXIIa competitive inhibition assay, fluorescent substrate Boc-QGR-MCA; format: biochemical
T1 construct: Human β-FXIIa was obtained from Molecular Innovations, together with human FXa, human FXIa, human α-thrombin, and human plasma kallikrein; purchased Molecular Innovations; host or cells: purified from human plasma
Method in brief: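 Human β-FXIIa (10 nM) preincubated to equilibrium with serially diluted inhibitors at room temperature in Tris pH 8.0 with NaCl, CaCl2 and Triton X-100. Activity followed with 100 μM Ac-QRFR-pNA (KM 162 μM) at 405 nm, or for later variants 0.5 nM enzyme with 50 μM Boc-QGR-MCA (KM 187 μM) by fluorescence. Ki from Morrison fits.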

[3] = tested on: human whole blood; test: Activated clotting time (ACT) in human whole blood; details: 10 μM, human whole blood
Procedure: as §1, §2

T1 sequence (P00748 373-615 limits assumed, other chains not shown): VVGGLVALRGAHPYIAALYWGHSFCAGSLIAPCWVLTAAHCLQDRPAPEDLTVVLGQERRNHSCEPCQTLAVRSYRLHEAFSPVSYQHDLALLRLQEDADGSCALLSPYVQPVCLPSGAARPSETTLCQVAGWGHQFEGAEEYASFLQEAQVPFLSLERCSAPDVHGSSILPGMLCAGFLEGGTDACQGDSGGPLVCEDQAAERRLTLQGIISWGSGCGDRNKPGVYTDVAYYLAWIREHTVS

CC[C@H](C)[C@@H]1NC(=O)CNC(=O)CNC(=O)[C@H](CC(=O)O)NC(=O)[C@H](CO)NC(=O)CNC(=O)[C@H](CO)NC(=O)CNC(=O)[C@@H]2CSSC[C@@H]3NC(=O)[C@H](CC(=O)O)NC(=O)[C@H](CO)NC(=O)[C@H](CC(=O)O)NC(=O)[C@H](CCCNC(=N)N)NC(=O)[C@H](CCCNC(=N)N)NC(=O)[C@@H]4CSSC[C@H](NC(=O)[C@H]([C@@H](C)CC)NC(=O)[C@H](CSSC[C@H](NC1=O)C(=O)N1CCC[C@H]1C(=O)N[C@@H](CCCNC(=N)N)C(=O)N[C@@H]([C@@H](C)CC)C(=O)NCC(=O)N[C@@H](CCCNC(=N)N)C(=O)N[C@@H](CC(C)C)C(=O)N4)NC(=O)[C@H](C)NC(=O)CNC(=O)[C@@H]1CCCN1C3=O)C(=O)N[C@@H](CCCNC(=N)N)C(=O)N1CCC[C@H]1C(=O)N[C@@H]([C@@H](C)O)C(=O)N[C@@H](CCCNC(=N)N)C(=O)N[C@@H](Cc1ccccc1)C(=O)N2 [Cyclic [A25P]MCoFx7] (cyclo(ACICRPTRFCGSGSDGGICPRIGRLCRRDSDCPG); disulfide 2-19, 4-26, 10-32)
INTEM clotting time [1]: 500 s
Ki [2]: 0.093 ± 0.005 nM
ACT clotting time [3]: 186 s
